| Structure (SMILES) | melting point [°C] |
| --- | --- |
| N#CCCCC(=O)N[C@H]1CC[C@H](CCN2CCN(c3cc(F)c(F)cc3F)CC2)CC1 [Example 473, 4-Cyano-N-(4-{2-[4-(2,4,5-trifluorophenyl)piperazin-1-yl]ethyl}cyclohexyl)butanamide] | 153 |
| Cc1ccc(N2CCN(CC[C@H]3CC[C@H](NC(=O)C4=CCCC4)CC3)CC2)cc1 [Example 475, Cyclopent-1-enecarboxylic acid {4-[2-(4-p-tolylpiperazin-1-yl)ethyl]cyclohexyl} amide] | 227 |
| CC(O)c1cccc(N2CCN(CC[C@H]3CC[C@H](NC(=O)CC(F)(F)F)CC3)CC2)c1 (stereo partly drawn) [Example 477, 3,3,3-trifluoro-N-[4-(2-{4-[3-(1-hydroxyethyl)phenyl]piperazin-1-yl}ethyl)cyclohexyl]propanamide] | 190 |
| CCOCC(=O)N[C@H]1CC[C@H](CCN2CCN(c3cccc(C(F)(F)F)c3F)CC2)CC1 [Example 478, 2-Ethoxy-N-(4-{2-[4-(2-fluoro-3-trifluoromethylphenyl)piperazin-1-yl]ethyl}cyclohexyl)acetamide] | 125 |
| CC(=O)CN1CCC(CCN2CCN(c3ccc(C)cc3F)CC2)CC1 [Example 482, 1-(4-{2-[4-(2-Fluoro-4-methylphenyl)piperazin-1-yl]ethyl}piperidin-1-yl)propan-2-one] | 65 |
| Cc1ccc(N2CCN(CC[C@H]3CC[C@H](NC(=O)CC#N)CC3)CC2)c(F)c1 [Example 484, 2-Cyano-N-(4-{2-[4-(2-fluoro-4-methylphenyl)piperazin-1-yl]ethyl}cyclohexyl)acetamide] | 197 |
| Cc1ccc(N2CCN(CC[C@H]3CC[C@H](NC(=O)CCCC#N)CC3)CC2)c(F)c1 [Example 485, 4-Cyano-N-(4-{2-[4-(2-fluoro-4-methylphenyl)piperazin-1-yl]ethyl}cyclohexyl)butanamide] | 173 |
| O=C(N[C@H]1CC[C@H](CCN2CCN(c3ccc(Cl)c(Cl)c3)CC2)CC1)C1=CCCC1 [Example 486, Cyclopent-1-enecarboxylic acid (4-{2-[4-(3,4-dichlorophenyl)piperazin-1-yl]ethyl}cyclohexyl) amide] | 202 |
| CCOCC(=O)N[C@H]1CC[C@H](CCN2CCN(c3ccc(Cl)c(Cl)c3)CC2)CC1 [Example 487, N-(4-{2-[4-(3,4-Dichlorophenyl)piperazin-1-yl]ethyl}cyclohexyl)-2-ethoxyacetamide] | 112 |
| O=C(N[C@H]1CC[C@H](CCN2CCN(c3ccc(Cl)cc3)CC2)CC1)C1=CCCC1 [Example 488, Cyclopent-1-enecarboxylic acid (4-{2-[4-(4-chlorophenyl)-piperazin-1-yl]ethyl}cyclohexyl) amide] | 237 |
| Cc1ccc(N2CCN(CC[C@H]3CC[C@H](NC(=O)C4=CCCC4)CC3)CC2)cc1Cl [Example 491, Cyclopent-1-enecarboxylic acid (4-{2-[4-(3-chloro-4-methylphenyl)piperazin-1-yl]ethyl}cyclohexyl) amide] | 197 |
| Cc1ccc(N2CCN(CC[C@H]3CC[C@H](NC(=O)CC(F)(F)F)CC3)CC2)cc1Cl [Example 492, N-(4-{2-[4-(3-Chloro-4-methylphenyl)piperazin-1-yl]ethyl}cyclohexyl)-3,3,3-trifluoropropanamide] | 192 |
| O=C(N[C@H]1CC[C@H](CCN2CCN(c3ccc(F)cc3F)CC2)CC1)C1CC=CC1 [Example 494, Cyclopent-3-enecarboxylic acid (4-{2-[4-(2,4-difluorophenyl)-piperazin-1-yl]ethyl}cyclohexyl) amide] | 199 |
| CC(=O)CN1CCC(CCN2CCN(c3ccc(Cl)c(Cl)c3)CC2)CC1 [Example 495, 1-(4-{2-[4-(3,4-Dichlorophenyl)-piperazin-1-yl]ethyl}piperidin-1-yl)propan-2-one] | 114 |
| O=C(N[C@H]1CC[C@H](CCN2CCN(c3cccc(C(F)(F)F)c3F)CC2)CC1)C1=COCC1 [Example 497, 4,5-Dihydrofuran-3-carboxylic acid (4-{2-[4-(2-fluoro-3-trifluoromethylphenyl)piperazin-1-yl]ethyl}cyclohexyl) amide] | 192 |
| O=C(N[C@H]1CC[C@H](CCN2CCN(c3cccc(C(F)(F)F)c3F)CC2)CC1)[C@@H]1CCCN1 [Example 501, Pyrrolidine-2-carboxylic acid (4-{2-[4-(2-fluoro-3-trifluoro-methylphenyl)piperazin-1-yl]ethyl}cyclohexyl) amide] | 140 |
| COCCCC(=O)N[C@H]1CC[C@H](CCN2CCN(c3ccc(C)c(C)c3)CC2)CC1 [Example 506, N-(4-{2-[4-(3,4-Dimethylphenyl)piperazin-1-yl]ethyl}cyclohexyl)-4-methoxybutanamide] | 161 |

The next lines start with the values.

| melting point [°C] | Structure (SMILES) |
| --- | --- |
| 130 | CCOCC(=O)N[C@H]1CC[C@H](CCN2CCN(c3ccc(C)cc3)CC2)CC1 [Example 474, 2-Ethoxy-N-{4-[2-(4-p-tolylpiperazin-1-yl)ethyl]cyclohexyl}acetamide] |
| 207 | O=C(N[C@H]1CC[C@H](CCN2CCN(c3cccc(C(F)(F)F)c3F)CC2)CC1)C1=COCCC1 [Example 476] |
| 190 | N#CCCCC(=O)N[C@H]1CC[C@H](CCN2CCN(c3ccc(Cl)cc3)CC2)CC1 [Example 479, N-(4-{2-[4-(4-Chlorophenyl)piperazin-1-yl]ethyl}cyclohexyl)-4-cyanobutanamide] |
| 234 | O=C(CC(F)(F)F)N[C@H]1CC[C@H](CCN2CCN(c3ccc(Cl)cc3)CC2)CC1 [Example 480, N-(4-{2-[4-(4-Chlorophenyl)-piperazin-1-yl]ethyl}cyclohexyl)-3,3,3-trifluoropropanamide] |
| 164 | COc1ccc(C)cc1N1CCN(CC[C@H]2CC[C@H](NC(=O)CCCC#N)CC2)CC1 [Example 483, 4-Cyano-N-(4-{2-[4-(2-methoxy-5-methylphenyl)piperazin-1-yl]ethyl}cyclohexyl)butanamide] |
| 217 | Cc1ccc(N2CCN(CC[C@H]3CC[C@H](NC(=O)CC(F)(F)F)CC3)CC2)cc1 [Example 493, 3,3,3-Trifluoro-N-{4-[2-(4-p-tolylpiperazin-1-yl)ethyl]cyclohexyl}propanamide] |
| 175 | COCCCC(=O)N[C@H]1CC[C@H](CCN2CCN(c3ccc(Cl)c(Cl)c3)CC2)CC1 [Example 502, N-(4-{2-[4-(3,4-Dichlorophenyl)piperazin-1-yl]ethyl}cyclohexyl)-4-methoxybutanamide] |
| 130 | CCOCC(=O)N[C@H]1CC[C@H](CCN2CCN(c3ccc(F)cc3F)CC2)CC1 [Example 503, N-(4-{2-[4-(2,4-Difluorophenyl)piperazin-1-yl]ethyl}cyclohexyl)-2-ethoxyacetamide] |
| 185 | COCCCC(=O)N[C@H]1CC[C@H](CCN2CCN(c3ccc(F)cc3F)CC2)CC1 [Example 504, N-(4-{2-[4-(2,4-Difluorophenyl)piperazin-1-yl]ethyl}cyclohexyl)-4-methoxybutanamide] |
| 172 | Cc1ccc(N2CCN(CC[C@H]3CC[C@H](NC(=O)CCCC#N)CC3)CC2)cc1C [Example 505, 4-Cyano-N-(4-{2-[4-(3,4-dimethylphenyl)piperazin-1-yl]ethyl}cyclohexyl)butanamide] |
